According to patent US11725204B2, “Multiplex genome engineering in eukaryotes” (priority 2016, dated 2023):

Key:
Format in all cases: cell-based, S. cerevisiae
[1] = test system: ADE2; assay: eMAGE allelic replacement frequency at Ori-URA3-ADE2 locus (5-FOA selection, red/white screening)
Protocol: A list of ssODNs used for FIGS. 1-4 in this study can be found in Table 2. For eMAGE experiments, a single colony was inoculated in 2 mL CSM-Ura medium and grown overnight to saturation. The next day the culture was diluted 1:50 in 10 mL of CSM-Ura and grown for 6 hours prior to electroporation. The ssODN concentration and size were determined from optimization experiments performed in Figure S2D,F. A total of 20 uM of 90nt ssODNs consisting of 50% selection ssODN 50% target ssODN(s) was used for eMAGE transformations. The optimal HU concentration was determined from figure S2A. The eMAGE pretreatment mixture contained 500 mM HU in TE pH 8/500 mM Lithium Acetate/25 mM DTT. Electroporation for eMAGE was performed exactly as described above. After 12 hours of recovery, ˜10^5 cells were plated on 5-FOA selection plates for msh2Δ and MMR mutant strains and ˜10^7 cells were plated for strains with WT MMR. The resultant 5-FOA plates contained ˜100 colonies which were subject to screening for target ssODN incorporation. The indicated ARF values represent mean+/−SD. All data sets were collected in triplicate. For the Rad51 chemical inhibitor experiment (Figure S1J) the recovery medium was supplemented with inhibitor RI-1 (Abcam ab144558)+1.5% DMSO for solubility.
Experiments were designed to determine if Rad51-dependent ssODN recombination and incorporation of ssODNs at the DNA replication fork are two distinct pathways in eukaryotes (FIG. 1A). Unlike the E. coli chromosome, the linear chromosomes of S. cerevisiae contain multiple firing origins of replication that confound the precise designation of the lagging strand at each locus (Raghuraman, et al., Science, 294:115-121 (2001); Wyrick, et al., Science, 294:2357-2360 (2001)). Sherman and colleagues observed high frequencies of co-transformation for two ssODNs targeted within a cyc1 mutant gene when one of the ssODNs included a selectable mutation (Yamamoto, et al., Yeast, 8:935-948 (1992a)). […] Experiments were designed to determine whether Sherman's observation could be expanded for ssODNs targeting multiple proximal genes by constructing an experimental locus on chromosome XV with a defined DNA replication direction by placing the URA3 gene proximal to the origin ARS1516 (Ori) directly adjacent to ADE2, which confers a colorimetric phenotype (WT=white; Mutant=red) (FIG. 1C). Cells were transformed with ssODNs targeting the predicted lagging strand of both URA3 and ADE2, and it was observed that ssODN-derived modifications at ADE2 were increased by >10^4-fold (ARF=22%) in URA3-edited (5-FOA resistant) clones (FIG. 1C). […]

[2] = test system: target sites at increasing distances from the URA3 marker; assay: Target distance efficiency determination (red/white screening or colony PCR with EcoRI digestion); settings: +HU
Protocol: Target mutation distance is reported as the distance between the URA3 marker mutation incorporated by the selection-ssODN and the mutation incorporated by the target-ssODN. For target distances of 1 and 2 kb, ssODNs ADE290RC and ADE2_Mult10 were used within the ADE2 gene and the ARFs for these sites were determined by red/white phenotype screening. For targets at 5, 10, 15, and 20 kb distances from the Ori-URA3, target sites were chosen that differ by only a single base-pair from an EcoRI restriction site. The target ssODN was designed to incorporate a base-pair change to create the EcoRI restriction site. For each target assayed, 96 clones were analyzed by colony PCR (Primers for the amplicons analyzed are listed in Table 3) coupled to EcoRI (NEB) digestion of the amplicon for 1 hr at 37° C. The percentage of amplicons cut vs. uncut is represented as the ARF for each distance site. Each distance experiment was performed in triplicate+/−HU treatment. ARF values represent mean+/−SD.

[3] = test system: ADE2; assay: Multiplex incorporation of ssODNs and cycling (colony PCR and Sanger sequencing); settings: 10-target multiplexing, with HU
Protocol: For multiplex eMAGE experiments targeting ADE2, red clones that grew on 5-FOA plates were assayed via yeast colony PCR and Sanger sequencing (Genewiz). Insertions were chosen for easy sequence detection since degenerate mismatches would contain WT sequence positions. For cycling experiments, cells were recovered in recovery media after electroporation as described above. After recovery, the population was subjected to liquid selection in 5-FOA for odd cycles and CSM-Ura for even numbered cycles to enrich for edited clones. Selections were performed for 500 uL of recovery culture seeded into 50 mL of selection medium and grown to saturation at 30° C. (˜2 days).
After the first 1:100 selection the population was diluted 1:50 in selection media and grown for 6 hours for the next electroporation step. The process was repeated for 3 cycles. A total of 100 red clones were sequenced after each cycle. For cycles 1 and 2, 200 unique genotypes were observed out of […], but for cycle 3, 76 unique genotypes were observed out of the 100 clones sequenced. Given that the degeneracy of the ssODN pool largely out-scales the number of clones assayed redundant genotypes would not be expected to arise for independent clones in any cycle assayed. The 24 redundant clones observed in cycle 3 were comprised of 5 genotypes. […]

[4] = test system: URA3; assay: Spontaneous URA3 mutations with transient HU treatment
Protocol: Experiments were designed to determine if transient treatment with HU would increase the efficiency for ssODN annealing at the replication fork. A 30 minute treatment with 500 mM HU increased the ARF by ˜two-fold compared to the untreated condition. Seven different ssODNs containing a single base-pair mismatch (ssODNs 1,2,5-7), insertion (ssODN #4), or deletion (ssODN #3) in ADE2 were tested and an average ARF increase of 56% (FIG. 2A) was observed. […] The effect of ssODN size and concentration was also tested. Robust cell survival post electroporation (85%) was tested for ssODN concentrations up to 20 uM, which decreased to 45% at 80 uM ssODN. The efficiency of URA3 single-plex targeting increased with increasing ssODN size and concentration with the highest ARF observed (0.08%) for 100nt ssODN at 60 uM. For coupled ADE2-URA3 targeting an optimum ade2 mutant per 5-FOA CFU was determined using a 90nt ssODN at 20 uM. For all subsequent experiments 90nt ssODNs at 20 uM were used.

Q: How did the “increase of ARF compared to the untreated condition” value ([1]; 30 minute treatment with 500 mM HU) turn out when `NC(=O)NO` [HU, Hydroxyurea] was run?
A: two-fold

Q: What about the “HU effect on ARF with HIS3 selection marker” value ([1]; HIS3 selection marker in replace of URA3) of the same compound?
A: HU effect was also observed

Q: And the “average ARF increase” value ([1]; HU treatment, seven ssODNs with single base-pair mismatch, insertion or deletion in ADE2)?
A: 56%

Q: What about the “ARF vs target distance curve fit, Y0” value ([2]; one-phase decay Y=(Y0−Z)*exp(−K*X)+Z) of the same compound?
A: 49.6

Q: What about the “ARF vs target distance curve fit, K” value ([2]; one-phase decay fit) of the same compound?
A: 0.279

Q: What about the “ARF vs target distance curve fit, Z” value ([2]; one-phase decay fit) of the same compound?
A: 2.25

Q: What about the “multiplex enhancement of ssODN incorporation” value ([3]; WT) of the same compound?
A: no multiplex enhancement

Q: What about the “mean number of ssODNs incorporated” value ([3]; msh2Δ) of the same compound?
A: 3.4 per clone

Q: What about the “spontaneous URA3 mutations” value [4] of the same compound?
A: no significant increase

Q: `O=C1C(Cl)=C(N2CCOCC2)C(=O)N1c1ccc(Cl)c(Cl)c1` [RI-1] was tested. Which “ARF change with Rad51 inhibitor” value ([1]; recovery medium supplemented with RI-1 + 1.5% DMSO) did it give?
A: ARF enhancement was observed
